# Source: patent publication US9255100B2 (BAYER INTELLECTUAL PROPERTY GMBH, priority 2010, dated 2016)
# Molecular target: T1, N-terminally GST-tagged human full length recombinant Mps-1 kinase (Homo sapiens, UniProt P33981)
# T1 construct: N-terminally GST-tagged human full length recombinant Mps-1 kinase; purchased Invitrogen, Karslruhe, Germany PV4071
# T1 sequence (P33981 1-857): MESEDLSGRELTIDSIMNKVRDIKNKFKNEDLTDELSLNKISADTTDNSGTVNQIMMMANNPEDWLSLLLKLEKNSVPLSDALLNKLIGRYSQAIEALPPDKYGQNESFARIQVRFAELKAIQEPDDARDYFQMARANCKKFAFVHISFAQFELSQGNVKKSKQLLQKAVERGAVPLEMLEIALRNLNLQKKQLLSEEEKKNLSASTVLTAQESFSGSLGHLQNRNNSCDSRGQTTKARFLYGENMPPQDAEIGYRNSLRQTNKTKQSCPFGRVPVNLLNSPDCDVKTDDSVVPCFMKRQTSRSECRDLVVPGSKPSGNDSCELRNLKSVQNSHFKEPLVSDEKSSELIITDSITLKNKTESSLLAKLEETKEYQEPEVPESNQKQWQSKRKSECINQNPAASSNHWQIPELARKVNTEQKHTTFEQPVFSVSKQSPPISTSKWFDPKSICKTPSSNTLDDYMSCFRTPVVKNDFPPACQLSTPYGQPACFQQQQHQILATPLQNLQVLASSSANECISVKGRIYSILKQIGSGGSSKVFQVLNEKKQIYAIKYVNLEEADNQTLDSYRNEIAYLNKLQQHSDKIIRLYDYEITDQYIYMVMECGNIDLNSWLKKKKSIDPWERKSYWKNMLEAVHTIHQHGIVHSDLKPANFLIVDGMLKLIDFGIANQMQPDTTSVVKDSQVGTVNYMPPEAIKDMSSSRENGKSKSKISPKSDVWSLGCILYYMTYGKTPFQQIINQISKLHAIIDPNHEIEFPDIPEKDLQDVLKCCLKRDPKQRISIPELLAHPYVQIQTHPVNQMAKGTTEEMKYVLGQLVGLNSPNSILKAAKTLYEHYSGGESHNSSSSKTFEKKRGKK
# Experiment: Mps-1 kinase assay (TR-FRET)
# Assay type: biochemical
# Conditions: Mps1 IC50 [nM], 10 μM ATP, 1 μM peptide substrate, 60 min at 22° C.
# Method: The human kinase Mps-1 phosphorylates a biotinylated substrate peptide. Detection of the phosphorylated product is achieved by time-resolved fluorescence resonance energy transfer (TR-FRET) from Europium-labelled anti-phospho-Serine/Threonine antibody as donor to streptavidin labelled with cross-linked allophycocyanin (SA-XLent) as acceptor. Compounds are tested for their inhibition of the kinase activity.
# N-terminally GST-tagged human full length recombinant Mps-1 kinase (purchased from Invitrogen, Karslruhe, Germany, cat. no PV4071) was used. As substrate for the kinase reaction a biotinylated peptide of the amino-acid sequence […] (C-terminus in amide form, purchased from Biosynthan GmbH, Berlin) was used.
# The concentration of Mps-1 in the assay was adjusted to the activity of the enzyme lot and was chosen appropriate to have the assay in the linear range, typical enzyme concentrations were in the range of about 1 nM (final conc. in the 5 μl assay volume).
# The resulting mixture was incubated 1 h at 22° C. to allow the binding of the phosphorylated peptide to the anti-phospho(Ser/Thr)-Europium-antibody. Subsequently the amount of phosphorylated substrate was evaluated by measurement of the resonance energy transfer from the Europium-labelled anti-phospho(Ser/Thr) antibody to the Streptavidin-XLent.
row,SMILES,IC50
1,"CSc1cc(NCC(C)(C)O)c2ncc(-c3ccc(C(=O)NC4CC4)c(C)c3)n2n1 [Example 15, N-cyclopropyl-4-{8-[(2-hydroxy-2-methylpropyl)amino]-6-(methylsulfanyl)imidazo[1,2-b]pyridazin-3-yl}-2-methylbenzamide]",21.5 nM
2,"C/C=C/c1cc(NCCC(F)(F)F)c2ncc(-c3ccc(-c4cnc(C5CC5)[nH]4)cc3)n2n1 [Example 16, 3-[4-(2-Cyclopropyl-1H-imidazol-5-yl)phenyl]-6-[(1E)-prop-1-en-1-yl]-N-(3,3,3-trifluoropropyl)imidazo[1,2-b]pyridazin-8-amine]",27.3 nM
3,"Cc1cc(-c2cnc3c(NCC(C)(C)O)cc(S(C)(=O)=O)nn23)ccc1C(=O)NC1CC1 [Example 18, N-cyclopropyl-4-{8-[(2-hydroxy-2-methylpropyl)amino]-6-(methylsulfonyl)imidazo[1,2-b]pyridazin-3-yl}-2-methylbenzamide]",228 nM
4,"Cc1cc(-c2cnc3c(NCC(C)(C)O)cc(-c4ccnn4C)nn23)ccc1C(=O)NC1CC1 [Example 21, N-cyclopropyl-4-{8-[(2-hydroxy-2-methylpropyl)amino]-6-(1-methyl-1H-pyrazol-5-yl)imidazo[1,2-b]pyridazin-3-yl}-2-methylbenzamide]",3.7 nM
5,"C=Cc1cc(NCCC(F)(F)F)c2ncc(-c3ccc(-c4cnc(C5CC5)[nH]4)cc3)n2n1 [Example 22, 3-[4-(2-Cyclopropyl-1H-imidazol-5-yl)phenyl]-6-ethenyl-N-(3,3,3-trifluoropropyl)imidazo[1,2-b]pyridazin-8-amine]",35.7 nM
6,"C/C=C(\C)c1cc(NCC(C)(C)O)c2ncc(-c3ccc(C(=O)NC4CC4)c(C)c3)n2n1 [Example 25, 4-{6-[(2E)-But-2-en-2-yl]-8-[(2-hydroxy-2-methylpropyl)amino]imidazo[1,2-b]pyridazin-3-yl}-N-cyclopropyl-2-methylbenzamide]",13.1 nM

# The next compounds have a lower IC50 than those just listed; values first:
row,IC50,SMILES
1,2.4 nM,"CC(C)CNc1cc(-c2ccccc2)nn2c(-c3ccc4c(N)n[nH]c4c3)cnc12 [Example 11, 3-(3-Amino-1H-indazol-6-yl)-N-isobutyl-6-phenylimidazo[1,2-b]pyridazin-8-amine]"
2,3.2 nM,"Cc1cc(-c2cnc3c(NCC(C)(C)O)cc(-c4ccccc4)nn23)ccc1C(=O)NC1CC1 [Example 12, N-cyclopropyl-4-{8-[(2-hydroxy-2-methylpropyl)amino]-6-phenylimidazo[1,2-b]pyridazin-3-yl}-2-methylbenzamide]"
3,1.8 nM,"CC(C)CNc1cc(-c2ccncc2)nn2c(-c3ccc(C(=S)NC4CC4)cc3)cnc12 [Example 13, N-cyclopropyl-4-[8-(isobutylamino)-6-(pyridin-4-yl)imidazo[1,2-b]pyridazin-3-yl]benzenecarbothioamide]"
4,1.2 nM,"CC(C)(O)CNc1cc(-c2ccccc2)nn2c(-c3ccc(C(=O)NC4CC4)cc3)cnc12 [Example 14, N-cyclopropyl-4-{8-[(2-hydroxy-2-methylpropyl)amino]-6-phenylimidazo[1,2-b]pyridazin-3-yl}benzamide]"
5,3.2 nM,"COC(C)(C)CNc1cc(-c2ccncc2)nn2c(-c3ccc(C(=O)NC4CC4)c(C)c3)cnc12 [Example 17, N-cyclopropyl-4-{8-[(2-methoxy-2-methylpropyl)amino]-6-(pyridin-4-yl)imidazo[1,2-b]pyridazin-3-yl}-2-methylbenzamide]"
6,1.6 nM,"CC(C)(O)CNc1cc(-c2ccc(F)cc2)nn2c(-c3ccc(C(=O)NC4CC4)cc3)cnc12 [Example 19, N-cyclopropyl-4-{6-(4-fluorophenyl)-8-[(2-hydroxy-2-methylpropyl)amino]imidazo[1,2-b]pyridazin-3-yl}benzamide]"
7,1.2 nM,"Cc1cc(-c2cnc3c(NCCC(F)(F)F)cc(-c4ccccc4CO)nn23)ccc1C(=O)NC1CC1 [Example 20, N-cyclopropyl-4-{6-[2-(hydroxymethyl)phenyl]-8-[(3,3,3-trifluoropropyl)amino]imidazo[1,2-b]pyridazin-3-yl}-2-methylbenzamide]"
